We go through two compounds from patent EP0584588A1, “Anti-ulcer composition containing imidazole derivative” (NIPPON CHEMIPHAR CO., LTD., priority 1992, dated 1994).

Series [1] has as its system HCl-ethanol erosion. In words: HCl-ethanol erosion model (cytoprotective action on gastrointestinal tract). The class given is in vivo, SD rats. As to conditions: Rattus norvegicus, 0.5 h; oral, 30 min. before HCl-ethanol mixture; total length of erosions; read-out: ED₅₀. As to the method:
To a mixture of 2-[(2-Isobutylamino)benzylthio]imidazole (1 g) obtained in (i) above, chloroform (40 ml), and methanol (10 ml) was portionwise added under chilling with ice, m-chloroperbenzoic acid (equivalent molar amount). After completion of the reaction was confirmed using TLC, the reaction mixture was made alkaline by addition of saturated aqueous sodium hydrogen carbonate and extracted with chloroform. The chloroform portion was then treated successively with three portions of 10 ml of 0.1 N aqueous NaOH and one portion of 20 ml of 0.1 N aqueous NaOH to transfer the desired product into the aqueous portions. The obtained four aqueous portions were separately made ammonia-alkaline by addition of 20% aqueous […]. The precipitated crystals were collected, washed sufficiently with ether, and dried to give 0.6 g (yield: 56.5%) of the desired product as a white crystalline powder. […]
SD rats were fested for 24 hours. […] Length (mm) of each erosion was measured, and the total length (mm) of the erosions observed in one rat was calculated. […]

Series [2] can be described thus: Stability in acidic conditions (Britten-Robinson buffer, HPLC). Type of series: physicochemical. On the procedure:
The stability of the compound in acidic conditions was determined at 37 °C in Britten-Robinson buffer which had been previously adjusted to pH 3.0, 5.0 or 7.0. The compound was dissolved in this buffer by supersonic waves, and the filtered solution was monitored by high performance liquid chromatography (HPLC) (Tosoh TSK-gel ODS-120T 4.6-250mm, CH₃CN/10 mM phosphate buffer (pH 6.0), 1 ml/min., room temperature (25 °C), detector ultraviolet (UV) 240-250 nm). Half-lives (T1/2) were determined from linear regression of the concentration vs. time (h).

Read-outs that look alike come from different tables or passages of the source.

`CC(C)CNc1ccccc1C[S+]([O-])c1ncc[nH]1` (stereo not shown) [Imidazole derivative A, 2-[(2-Isobutylamino)benzylsulfinyl]imidazole]: the ED50 in series [1] was determined as 3.6 mg/kg. Moreover, the half-life in series [2] (britten-robinson buffer, pH 3) is 1.8 min; in series [2] (britten-robinson buffer, pH 5), 55.8 min; in series [2] (britten-robinson buffer, pH 7), 3780 min.

In the case of `COc1ccc2[nH]c([S+]([O-])Cc3ncc(C)c(OC)c3C)nc2c1` (stereo not shown) [Omeprazole, reference compound], the half-life in series [2] (pH 3.0, 37°C, Britten-Robinson buffer, read-out: (T1/2) (converted)) was 3 min; in series [2] (pH 5.0, 37°C, Britten-Robinson buffer, read-out: (T1/2) (converted)) it was 20.4 min; in series [2] (pH 7.0, 37°C, Britten-Robinson buffer, read-out: (T1/2) (converted)), 1620 min.
